logP | Compound
2.92 | c1ccc(CNc2nc3ccccc3[nH]2)cc1
2.11 | NC(=O)C(c1ccccc1)c1ccccc1
3.1 | O=C(Nc1ccccc1)Nc1ccccn1
2.19 | CCC(=O)NC(=O)Nc1ccccc1
0.13 | CC(=O)Nc1ccccc1N
0.8 | CNC(=O)Nc1ccccn1

Second part, the molecule before the results:

Compound | logP
CC(C)NC(=O)c1ccc2ccccc2c1 | 2.68
OCCNc1nc2ccccc2[nH]1 | 1.1
CNc1ccccc1C(=O)OC | 2.97
CC(C)NC(=O)Nc1ccccc1 | 1.84
NC(=O)C(C(N)=O)c1ccccc1 | -0.07
COc1ccc(C(=O)Nc2nc3ccccc3[nH]2)cc1 | 2.89
CC(C)Nc1ccccc1N | 1.65
O=C(CCl)Nc1sc2c(c1C(=O)c1ccccc1)CCCC2 | 4.58
CC(C)NC(=O)c1cc2ccccc2oc1=O | 2.13
CCc1ccccc1NC | 2.58

— the SangsterLogP compilation
